# Measurements reported in PMC5078040 (Oncotarget, 2016).
# How the values were obtained:
# [1] = biological target: T1, RET (Homo sapiens, UniProt P07949); experiment: KinomeScan; type: binding; conditions: 1uM
# T1 construct: purchased DiscoveRx KINOMEscan
# [2] = biological target: T2, DAPK2 (Homo sapiens, UniProt Q9UIK4); experiment: KinomeScan; type: binding; conditions: 1uM
# T2 construct: purchased DiscoveRx KINOMEscan
# [3] = biological target: T3, TAK1 (Homo sapiens, UniProt O43318); experiment: KinomeScan; type: binding; conditions: 1uM
# T3 construct: purchased DiscoveRx KINOMEscan
# [4] = biological target: T4, PKAC-alpha (Homo sapiens, UniProt P17612); experiment: KinomeScan; type: binding; conditions: 1uM
# T4 construct: purchased DiscoveRx KINOMEscan
# [5] = biological target: T5, CAMK2A (Homo sapiens, UniProt Q9UQM7); experiment: KinomeScan; type: binding; conditions: 1uM
# T5 construct: purchased DiscoveRx KINOMEscan
# [6] = biological target: T6, CSK (Homo sapiens, UniProt P41240); experiment: KinomeScan; type: binding; conditions: 1uM
# T6 construct: purchased DiscoveRx KINOMEscan
# [7] = biological target: T7, ABL1(F317I)-nonphosphorylated (Homo sapiens, UniProt P00519, F317I); experiment: KinomeScan; type: binding; conditions: 1uM
# T7 construct: purchased DiscoveRx KINOMEscan
# [8] = biological target: T8, EGFR(L858R,T790M) (Homo sapiens, UniProt P00533, L858R/T790M); experiment: KinomeScan; type: binding; conditions: 1uM
# T8 construct: purchased DiscoveRx KINOMEscan
# [9] = biological target: T9, ABL1(T315I)-phosphorylated (Homo sapiens, UniProt P00519, T315I); experiment: KinomeScan; type: binding; conditions: 1uM
# T9 construct: purchased DiscoveRx KINOMEscan
# [10] = biological target: T10, FLT4 (Homo sapiens, UniProt P35916); experiment: KinomeScan; type: binding; conditions: 1uM
# T10 construct: purchased DiscoveRx KINOMEscan
# [11] = biological target: T11, STK36 (Homo sapiens, UniProt Q9NRP7); experiment: KinomeScan; type: binding; conditions: 1uM
# T11 construct: purchased DiscoveRx KINOMEscan
# [12] = system: MOLM-14; experiment: Anti-proliferative assay; type: cell-based; conditions: Homo sapiens; MOLM-14, AML-M5; 72 hours, CellTiter-Glo
# Procedure: (§1) Cells were grown in 96-well culture plates (3000-4000/well). […] Cell proliferation was determined after treatment with compounds for 72 hours. Cell viability was measured using the CellTiter–Glo Assay Kit (Promega, USA), according to the manufacturer's instructions, and luminescence was measured in a multi-label reader (Envision, PerkinElmer, USA). Data were normalized to control groups (DMSO) and represented by the mean of three independent measurements with standard error <20%. GI50 values were calculated using Prism 5.0 (GraphPad Software, San Diego, CA).
# [13] = system: RPMI8226; experiment: Anti-proliferative assay; type: cell-based; conditions: Homo sapiens, RPMI-8226; RPMI8226, MM; 72 hours, CellTiter-Glo
# Procedure: as §1
# [14] = system: NALM-6; experiment: Anti-proliferative assay; type: cell-based; conditions: Homo sapiens, 72 hours, CellTiter-Glo
# Procedure: as §1
# [15] = system: HL-60; experiment: Anti-proliferative assay; type: cell-based; conditions: Homo sapiens; HL-60, AML-M2; 72 hours, CellTiter-Glo
# Procedure: as §1
# [16] = system: Namalwa; experiment: Anti-proliferative assay; type: cell-based; conditions: Homo sapiens, Burrkit lymphoma, 72 hours, CellTiter-Glo
# Procedure: as §1
# [17] = system: JVM-2; experiment: Anti-proliferative assay; type: cell-based; conditions: Homo sapiens; JVM-2, Mantle cell lymphoma; 72 hours, CellTiter-Glo
# Procedure: as §1
# [18] = system: HEL; experiment: Anti-proliferative assay; type: cell-based; conditions: Homo sapiens, AML-M6, 72 hours, CellTiter-Glo
# Procedure: as §1
# [19] = system: HT; experiment: Anti-proliferative assay; type: cell-based; conditions: Homo sapiens, B-cell lymphoma, 72 hours, CellTiter-Glo
# Procedure: as §1
# [20] = system: Hs 505T; experiment: Anti-proliferative assay; type: cell-based; conditions: Homo sapiens, CLL, 72 hours, CellTiter-Glo
# Procedure: as §1
# [21] = system: MV4-11; experiment: Anti-proliferative assay; type: cell-based; conditions: Homo sapiens; MV4-11, AML; 72 hours, CellTiter-Glo
# Procedure: as §1
# [22] = system: MEC-2; experiment: Anti-proliferative assay; type: cell-based; conditions: Homo sapiens, MEC2; MEC-2, CLL; 72 hours, CellTiter-Glo
# Procedure: as §1
# [23] = system: U937; experiment: Anti-proliferative assay; type: cell-based; conditions: Homo sapiens, U-937; U937, AML; 72 hours, CellTiter-Glo
# Procedure: as §1
# [24] = system: OCI-AML-2; experiment: Anti-proliferative assay; type: cell-based; conditions: Homo sapiens, OCI-AML2; OCI-AML-2, AML-M4; 72 hours, CellTiter-Glo
# Procedure: as §1
# [25] = system: PF382; experiment: Anti-proliferative assay; type: cell-based; conditions: Homo sapiens, PF-382; PF382, ALL; 72 hours, CellTiter-Glo
# Procedure: as §1
# [26] = system: MOLM-13; experiment: Anti-proliferative assay; type: cell-based; conditions: Homo sapiens; MOLM-13, AML-M5; 72 hours, CellTiter-Glo
# Procedure: as §1
# [27] = system: AMO-1; experiment: Anti-proliferative assay; type: cell-based; conditions: Homo sapiens, AMO1; AMO-1, MM; 72 hours, CellTiter-Glo
# Procedure: as §1
# [28] = system: MEC-1; experiment: Anti-proliferative assay; type: cell-based; conditions: Homo sapiens, MEC1; MEC-1, CLL; 72 hours, CellTiter-Glo
# Procedure: as §1
# [29] = system: NOMO-1; experiment: Anti-proliferative assay; type: cell-based; conditions: Homo sapiens; NOMO-1, AML-M5; 72 hours, CellTiter-Glo
# Procedure: as §1
# [30] = system: OCI-AML-3; experiment: Anti-proliferative assay; type: cell-based; conditions: Homo sapiens; OCI-AML-3, AML-M4; 72 hours, CellTiter-Glo
# Procedure: as §1
# [31] = system: Ramos(new); experiment: Anti-proliferative assay; type: cell-based; conditions: Homo sapiens, Burrkit lymphoma, 72 hours, CellTiter-Glo
# Procedure: as §1
# [32] = biological target: T12, MRCKB (Homo sapiens, UniProt Q9Y5S2); experiment: KinomeScan; type: binding; conditions: 1uM
# T12 construct: purchased DiscoveRx KINOMEscan
# [33] = biological target: T13, MAP4K2 (Homo sapiens, UniProt Q12851); experiment: KinomeScan; type: binding; conditions: 1uM
# T13 construct: purchased DiscoveRx KINOMEscan
# [34] = biological target: T14, BRSK2 (Homo sapiens, UniProt Q8IWQ3); experiment: KinomeScan; type: binding; conditions: 1uM
# T14 construct: purchased DiscoveRx KINOMEscan
# [35] = biological target: T15, EGFR(S752-I759del) (Homo sapiens, UniProt P00533, DEL752-759); experiment: KinomeScan; type: binding; conditions: 1uM
# T15 construct: purchased DiscoveRx KINOMEscan
# [36] = biological target: T16, ULK2 (Homo sapiens, UniProt Q8IYT8); experiment: KinomeScan; type: binding; conditions: 1uM
# T16 construct: purchased DiscoveRx KINOMEscan
# [37] = biological target: T17, MLK3 (Homo sapiens, UniProt Q16584); experiment: KinomeScan; type: binding; conditions: 1uM
# T17 construct: purchased DiscoveRx KINOMEscan
# T5 sequence (Q9UQM7 whole entry): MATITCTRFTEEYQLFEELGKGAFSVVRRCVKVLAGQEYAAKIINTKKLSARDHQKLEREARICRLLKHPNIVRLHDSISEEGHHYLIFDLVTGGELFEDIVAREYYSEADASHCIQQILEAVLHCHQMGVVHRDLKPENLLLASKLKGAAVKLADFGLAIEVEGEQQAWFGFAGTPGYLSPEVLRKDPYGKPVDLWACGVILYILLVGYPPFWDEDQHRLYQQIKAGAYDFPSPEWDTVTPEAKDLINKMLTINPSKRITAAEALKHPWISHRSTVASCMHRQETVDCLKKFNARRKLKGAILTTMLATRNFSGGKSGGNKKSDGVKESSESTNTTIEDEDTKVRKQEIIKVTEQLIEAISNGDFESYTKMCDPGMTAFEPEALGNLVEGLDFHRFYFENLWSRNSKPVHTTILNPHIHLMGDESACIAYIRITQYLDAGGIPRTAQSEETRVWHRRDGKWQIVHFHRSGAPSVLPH
# T1 sequence (P07949 29-1114): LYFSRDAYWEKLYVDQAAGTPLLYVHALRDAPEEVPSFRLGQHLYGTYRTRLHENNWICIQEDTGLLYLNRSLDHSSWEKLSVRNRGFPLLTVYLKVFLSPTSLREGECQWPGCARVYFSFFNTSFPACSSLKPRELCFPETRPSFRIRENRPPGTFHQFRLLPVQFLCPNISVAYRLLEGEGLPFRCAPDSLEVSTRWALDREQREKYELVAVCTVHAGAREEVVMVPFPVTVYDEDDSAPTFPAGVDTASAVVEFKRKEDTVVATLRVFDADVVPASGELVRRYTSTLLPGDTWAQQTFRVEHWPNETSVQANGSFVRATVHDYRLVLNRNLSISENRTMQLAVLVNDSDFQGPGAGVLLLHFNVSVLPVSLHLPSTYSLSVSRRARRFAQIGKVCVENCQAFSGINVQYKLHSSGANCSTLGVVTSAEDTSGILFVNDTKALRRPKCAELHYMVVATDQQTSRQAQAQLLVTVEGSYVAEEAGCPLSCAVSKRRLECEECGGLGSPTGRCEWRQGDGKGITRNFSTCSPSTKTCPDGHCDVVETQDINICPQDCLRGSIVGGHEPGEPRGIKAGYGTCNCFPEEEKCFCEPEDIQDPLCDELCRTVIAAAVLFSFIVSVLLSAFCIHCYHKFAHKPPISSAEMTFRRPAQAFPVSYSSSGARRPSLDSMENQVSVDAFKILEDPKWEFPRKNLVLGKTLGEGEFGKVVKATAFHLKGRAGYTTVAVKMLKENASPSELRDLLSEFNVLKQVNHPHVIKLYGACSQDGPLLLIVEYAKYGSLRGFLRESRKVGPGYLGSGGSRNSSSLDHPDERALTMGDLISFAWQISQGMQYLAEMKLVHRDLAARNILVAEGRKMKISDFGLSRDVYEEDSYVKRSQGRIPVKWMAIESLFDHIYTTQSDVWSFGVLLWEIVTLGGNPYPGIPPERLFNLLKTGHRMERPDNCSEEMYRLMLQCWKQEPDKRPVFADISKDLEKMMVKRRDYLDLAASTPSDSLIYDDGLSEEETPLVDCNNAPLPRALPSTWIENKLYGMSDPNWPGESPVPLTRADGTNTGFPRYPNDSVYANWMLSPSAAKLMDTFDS
# T12 sequence (Q9Y5S2 whole entry): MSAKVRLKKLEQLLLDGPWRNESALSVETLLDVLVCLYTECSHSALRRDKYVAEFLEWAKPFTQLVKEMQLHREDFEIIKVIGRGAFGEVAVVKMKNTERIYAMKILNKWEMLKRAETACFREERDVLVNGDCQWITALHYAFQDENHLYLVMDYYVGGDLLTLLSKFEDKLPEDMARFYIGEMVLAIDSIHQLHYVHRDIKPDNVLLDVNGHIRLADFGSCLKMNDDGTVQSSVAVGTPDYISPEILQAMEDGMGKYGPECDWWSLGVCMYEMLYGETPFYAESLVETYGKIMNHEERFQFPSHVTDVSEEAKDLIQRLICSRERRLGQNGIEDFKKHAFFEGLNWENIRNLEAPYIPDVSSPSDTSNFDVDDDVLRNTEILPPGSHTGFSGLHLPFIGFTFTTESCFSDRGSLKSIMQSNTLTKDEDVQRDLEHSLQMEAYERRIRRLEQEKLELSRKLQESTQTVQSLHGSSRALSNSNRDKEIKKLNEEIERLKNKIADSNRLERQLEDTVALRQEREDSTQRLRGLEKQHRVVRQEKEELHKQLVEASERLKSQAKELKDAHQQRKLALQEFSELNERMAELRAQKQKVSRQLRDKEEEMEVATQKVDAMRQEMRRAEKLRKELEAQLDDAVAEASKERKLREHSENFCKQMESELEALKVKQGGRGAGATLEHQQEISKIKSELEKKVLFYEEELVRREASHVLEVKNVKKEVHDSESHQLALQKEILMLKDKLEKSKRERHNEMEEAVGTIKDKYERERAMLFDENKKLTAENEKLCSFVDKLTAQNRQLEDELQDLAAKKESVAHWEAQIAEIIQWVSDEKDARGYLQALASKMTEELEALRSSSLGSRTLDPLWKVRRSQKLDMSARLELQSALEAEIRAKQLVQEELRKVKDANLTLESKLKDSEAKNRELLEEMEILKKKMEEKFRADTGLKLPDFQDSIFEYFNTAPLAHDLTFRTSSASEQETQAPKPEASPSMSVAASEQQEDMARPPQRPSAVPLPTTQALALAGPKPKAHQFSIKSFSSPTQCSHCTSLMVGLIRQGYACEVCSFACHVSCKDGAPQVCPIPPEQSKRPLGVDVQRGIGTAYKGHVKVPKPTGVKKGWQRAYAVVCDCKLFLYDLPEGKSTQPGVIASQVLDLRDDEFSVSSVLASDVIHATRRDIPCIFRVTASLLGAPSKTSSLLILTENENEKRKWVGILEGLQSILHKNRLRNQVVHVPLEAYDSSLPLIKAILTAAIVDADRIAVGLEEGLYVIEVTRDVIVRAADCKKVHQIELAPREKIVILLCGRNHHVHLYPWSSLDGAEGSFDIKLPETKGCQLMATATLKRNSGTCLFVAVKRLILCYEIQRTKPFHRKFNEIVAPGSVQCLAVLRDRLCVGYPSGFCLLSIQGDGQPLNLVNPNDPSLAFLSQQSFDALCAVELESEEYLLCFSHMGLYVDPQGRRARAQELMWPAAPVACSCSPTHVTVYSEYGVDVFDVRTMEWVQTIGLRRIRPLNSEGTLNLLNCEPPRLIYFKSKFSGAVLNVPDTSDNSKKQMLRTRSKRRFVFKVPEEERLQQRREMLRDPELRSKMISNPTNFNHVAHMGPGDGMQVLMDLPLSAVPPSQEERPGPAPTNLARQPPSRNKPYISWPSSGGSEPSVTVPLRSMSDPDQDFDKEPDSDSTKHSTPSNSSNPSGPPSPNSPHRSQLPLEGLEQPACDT
# T13 sequence (Q12851 whole entry): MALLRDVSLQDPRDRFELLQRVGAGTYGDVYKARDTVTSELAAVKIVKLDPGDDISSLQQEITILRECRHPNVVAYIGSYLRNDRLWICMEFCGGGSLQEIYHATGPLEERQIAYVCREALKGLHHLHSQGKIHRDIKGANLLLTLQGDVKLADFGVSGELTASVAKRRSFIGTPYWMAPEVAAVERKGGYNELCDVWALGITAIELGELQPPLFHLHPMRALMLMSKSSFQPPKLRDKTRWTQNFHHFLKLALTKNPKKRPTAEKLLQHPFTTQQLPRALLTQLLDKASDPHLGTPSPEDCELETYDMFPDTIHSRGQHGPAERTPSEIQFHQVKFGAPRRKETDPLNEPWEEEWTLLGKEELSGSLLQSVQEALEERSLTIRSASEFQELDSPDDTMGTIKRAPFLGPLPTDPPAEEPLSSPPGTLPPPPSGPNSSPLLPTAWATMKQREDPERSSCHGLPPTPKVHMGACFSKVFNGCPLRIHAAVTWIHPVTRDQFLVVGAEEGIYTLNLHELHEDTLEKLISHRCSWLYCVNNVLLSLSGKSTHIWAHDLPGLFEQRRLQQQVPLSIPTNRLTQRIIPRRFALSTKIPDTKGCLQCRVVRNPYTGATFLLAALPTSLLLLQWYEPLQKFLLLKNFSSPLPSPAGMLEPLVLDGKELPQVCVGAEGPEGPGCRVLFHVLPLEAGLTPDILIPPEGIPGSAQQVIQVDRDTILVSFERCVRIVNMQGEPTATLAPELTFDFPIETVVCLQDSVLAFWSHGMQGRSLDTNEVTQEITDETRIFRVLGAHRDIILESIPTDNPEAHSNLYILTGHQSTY
# T6 sequence (P41240 whole entry): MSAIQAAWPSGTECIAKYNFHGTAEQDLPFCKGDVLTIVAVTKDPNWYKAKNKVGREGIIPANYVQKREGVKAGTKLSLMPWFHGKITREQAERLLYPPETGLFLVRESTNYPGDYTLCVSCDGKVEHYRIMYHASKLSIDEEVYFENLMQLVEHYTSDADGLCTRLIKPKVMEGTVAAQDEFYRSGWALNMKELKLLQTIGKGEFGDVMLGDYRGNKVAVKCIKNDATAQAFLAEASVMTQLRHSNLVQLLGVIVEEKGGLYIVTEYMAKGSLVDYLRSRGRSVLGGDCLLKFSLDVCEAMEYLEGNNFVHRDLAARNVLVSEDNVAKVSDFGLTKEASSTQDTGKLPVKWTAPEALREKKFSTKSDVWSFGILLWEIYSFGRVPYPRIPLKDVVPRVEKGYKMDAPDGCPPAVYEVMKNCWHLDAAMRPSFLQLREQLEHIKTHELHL
# T15 sequence (P00533 with tags, fused parts or gaps DEL752-759 limits assumed): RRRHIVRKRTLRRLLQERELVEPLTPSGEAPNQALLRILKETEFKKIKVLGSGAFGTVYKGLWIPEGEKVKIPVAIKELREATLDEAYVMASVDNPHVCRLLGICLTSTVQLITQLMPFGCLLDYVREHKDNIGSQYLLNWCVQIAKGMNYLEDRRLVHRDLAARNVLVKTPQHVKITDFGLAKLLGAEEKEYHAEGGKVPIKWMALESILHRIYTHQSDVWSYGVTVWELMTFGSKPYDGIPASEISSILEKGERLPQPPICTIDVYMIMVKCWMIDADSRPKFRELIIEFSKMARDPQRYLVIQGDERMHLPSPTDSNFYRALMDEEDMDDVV
smiles,measurement,setting,value
Cc1nc(NC(=O)[C@@H](N)C(C)C)sc1-c1cnc(Cl)c(NS(=O)(=O)c2ccccc2)c1 [PI3KD-IN-015],KinomeScan RET,[1],100
same,KinomeScan DAPK2,[2],97
same,KinomeScan TAK1,[3],100
same,KinomeScan PKAC-alpha,[4],96
same,KinomeScan CAMK2A,[5],94
same,KinomeScan CSK,[6],90
same,KinomeScan ABL1(F317I)-nonphosphorylated,[7],100
same,"KinomeScan EGFR(L858R,T790M)",[8],100
same,KinomeScan ABL1(T315I)-phosphorylated,[9],98
same,KinomeScan FLT4,[10],93
same,KinomeScan STK36,[11],100
same,GI50,[12],2200 nM
same,GI50,[13],2500 nM
same,GI50,[14],1800 nM
same,GI50,[15],2300 nM
same,GI50,[16],1400 nM
same,GI50,[17],> 10000 nM
same,GI50,[18],> 10000 nM
same,GI50,[19],860 nM
same,GI50,[20],> 10000 nM
same,GI50,[21],1900 nM
same,GI50,[22],> 10000 nM
same,GI50,[23],5100 nM
same,GI50,[24],1800 nM
same,GI50,[25],3200 nM
same,GI50,[26],940 nM
same,GI50,[27],1100 nM
same,GI50,[28],> 10000 nM
same,GI50,[29],1400 nM
same,GI50,[30],3100 nM
same,GI50,[31],2000 nM
same,KinomeScan MRCKB,[32],91
same,KinomeScan MAP4K2,[33],91
same,KinomeScan BRSK2,[34],100
same,KinomeScan EGFR(S752-I759del),[35],100
same,KinomeScan ULK2,[36],79
same,KinomeScan MLK3,[37],100
